Measured values from patent US6069167A, “Use of antioxidant agents to treat cholestatic liver disease” (priority 1997, dated 2000).

Tests used:
[1] = tested on: lactate dehydrogenase (LDH); assay: Interference of TCDC with the LDH assay (total LDH activity of hepatocyte lysate); type: cell-based, rat; settings: 10×10^6 hepatocytes incubated 4 hours with or without TCDC at 1000 μmol/L
Protocol: Adult male Sprague Dawley rats (250-275 grams body weight) were obtained from Sasco, Inc. (Omaha, Nebr.). They were maintained on Purina lab chow (Ralston Purina Co., Chicago, Ill.) for 2-3 weeks and housed in polyethylene cages with stainless steel tops on a […]. All rats received humane care in compliance with the guidelines of the Committee on Laboratory Animal Research of the University of Colorado Health Sciences Center. Hepatocytes were isolated using a collagenase reperfusion technique that was a modification^24 of the method of Berry and Friend^25. After administration of intraperitoneal anesthesia (50 mg/kg body weight), each rat liver was perfused in situ via the portal vein with Krebs-Henseleit buffer containing a mixture of 17 amino acids as previously described^24 under a 9% O2 /5% CO2 /86% N2 atmosphere until perfusate was blood free (after approximately 25-50 ml of perfusate infusion). […] Initial cell viability measured by the trypan blue exclusion method^43 was above 95%. […]
Hepatocyte injury was assessed by the percentage of total cellular lactate dehydrogenase (LDH) release into the buffer medium. LDH was analyzed by measuring the rate of decrease in absorbance at 340 nm during reduction of pyruvate using a diagnostic kit supplied by Sigma Diagnostics (St Louis, Mo.). […]

hepatic toxicity (liver) = assay: Dose response of intravenous TCDC and hepatic toxicity (serum AST, ALT, bilirubin, alkaline phosphatase); type: in vivo, male Sprague-Dawley rats; settings: for Serum ALT / Serum AST: mean ± SEM, n = 4
Source text: Young adult male Sprague-Dawley rats (150-180 gram weight) purchased from Sasco, Inc. (Omaha, Nebr.) were fed Purina Lab Chow (Ralston Purina Co., Chicago, Ill.) ad libitum for 2-3 weeks and housed in polyethylene cages with stainless steel tops on a 12-hour light-dark cycle. All rats received humane care in compliance with the guidelines of the Animal Use in Research Committee of the University of Colorado Health Sciences Center. Rats were then randomly assigned (4-5 per group) to receive 0 (vehicle only), 5, 10, or 20 μmol of taurochenodeoxycholic acid (TCDC)/100 gram body weight. TCDC is a conjugate of the bile acid most implicated in cholestatic liver injury9,11,12. TCDC was solubilized in 5% dextrose, 10% BSA, and 0.45% normal saline. TCDC was administered while rats were under light methoxyflurane anesthesia as an intravenous bolus of the desired dose in 1 to 2 minutes through the tail vein. TCDC dosing was performed between 7 and 9 am. Rats recovered from the injection uneventfully and blood was obtained at 0, 4, 8, 12 and 24 hours after the injection for determination of AST, ALT total bilirubin and alkaline phosphatase by an automated chemical analyzer (Hitachi 747 Chemical Analyzer).

bile flow = settings: continuous jugular vein TCDC infusion 0.4 to 0.6 μmol/min/100 gram over 60 minutes; cited from earlier work
TCDC hepatic toxicity = type: in vivo, male Sprague-Dawley rats; settings: rat, in vivo
Source text: Young adult male Sprague-Dawley rats (150-180 gram weight) purchased from Sasco, Inc. (Omaha, Nebr.) were fed Purina Lab Chow (Ralston Purina Co., Chicago, Ill.) ad libitum for 2-3 weeks and housed in polyethylene cages with stainless steel tops on a 12-hour light-dark cycle. All rats received humane care in compliance with the guidelines of the Animal Use in Research Committee of the University of Colorado Health Sciences Center. […] TCDC is a conjugate of the bile acid most implicated in cholestatic liver injury9,11,12. TCDC was solubilized in 5% dextrose, 10% BSA, and 0.45% normal saline. TCDC was administered while rats were under light methoxyflurane anesthesia as an intravenous bolus of the desired dose in 1 to 2 minutes through the tail vein. TCDC dosing was performed between 7 and 9 am. […] Rats were divided into two treatment groups. One group was pretreated with parenteral Vitamin E (all-rac-alpha tocopherol, […], Hoffmann-LaRoche,Nutley, N.J.). The other group was not pretreated. These rats then received either vehicle or TCDC (10 μmol/[…]) by tail vein injection (as described in Example 1). […] All i.p. injections were administered under light methoxyflurane anesthesia. Following the vitamin E or saline injections, rats were randomly assigned to receive a tail vein bolus injection of either TCDC or vehicle. Rats were sacrificed four hours later and serum was analyzed for AST, ALT, total bilirubin and alkaline phosphatase. […] The serum alpha tocopherol:total lipids ratio (mg/gm) was calculated as an additional index of vitamin E status^41.

[2] = i.v. bolus TCDC in rats, data not shown
[3] = i.v. bolus TCDC in rats, dose-dependent

Total hepatocyte LDH activity in the lysate [1]: 90-96 units
Compound: C[C@H](CCC(=O)NCCS(=O)(=O)O)[C@H]1CC[C@H]2[C@@H]3[C@H](O)C[C@@H]4C[C@H](O)CC[C@]4(C)[C@H]3CC[C@]12C [TCDC, taurochenodeoxycholic acid]
Serum ALT (hepatic toxicity (liver); TCDC dose 5 i.v., 0 h): 52 ± 6 IU/L
Serum AST (hepatic toxicity (liver); TCDC dose 5 i.v., 0 h): 73 ± 9 IU/L
Serum ALT (hepatic toxicity (liver); TCDC dose 5 i.v., 4 h): 92 ± 23 IU/L
Serum AST (hepatic toxicity (liver); TCDC dose 5 i.v., 4 h): 121 ± 24 IU/L
Serum ALT (hepatic toxicity (liver); TCDC dose 5 i.v., 8 h): 88 ± 12 IU/L
Serum AST (hepatic toxicity (liver); TCDC dose 5 i.v., 8 h): 110 ± 12 IU/L
Serum ALT (hepatic toxicity (liver); TCDC dose 5 i.v., 12 h): 70 ± 7 IU/L
Serum AST (hepatic toxicity (liver); TCDC dose 5 i.v., 12 h): 105 ± 12 IU/L
Serum ALT (hepatic toxicity (liver); TCDC dose 5 i.v., 24 h): 72 ± 7 IU/L
Serum AST (hepatic toxicity (liver); TCDC dose 5 i.v., 24 h): 89 ± 3.5 IU/L
Serum ALT (hepatic toxicity (liver); TCDC dose 10 i.v., 0 h): 53 ± 3 IU/L
Serum AST (hepatic toxicity (liver); TCDC dose 10 i.v., 0 h): 92 ± 8 IU/L
Serum ALT (hepatic toxicity (liver); TCDC dose 10 i.v., 4 h): 1855 ± 701 IU/L
Serum AST (hepatic toxicity (liver); TCDC dose 10 i.v., 4 h): 3679 ± 1105 IU/L
Serum ALT (hepatic toxicity (liver); TCDC dose 10 i.v., 8 h): 1963 ± 701 IU/L
Serum AST (hepatic toxicity (liver); TCDC dose 10 i.v., 8 h): 2233 ± 1906 IU/L
Serum ALT (hepatic toxicity (liver); TCDC dose 10 i.v., 12 h): 492 ± 291 IU/L
Serum AST (hepatic toxicity (liver); TCDC dose 10 i.v., 12 h): 605 ± 249 IU/L
Serum ALT (hepatic toxicity (liver); TCDC dose 10 i.v., 24 h): 198 ± 82 IU/L
Serum AST (hepatic toxicity (liver); TCDC dose 10 i.v., 24 h): 328 ± 82 IU/L
Serum ALT (hepatic toxicity (liver); TCDC dose 20 i.v., 0 h): 64 ± 9 IU/L
Serum AST (hepatic toxicity (liver); TCDC dose 20 i.v., 0 h): 70 ± 6 IU/L
Serum ALT (hepatic toxicity (liver); TCDC dose 20 i.v., 4 h): 1712 ± 554 IU/L
Serum AST (hepatic toxicity (liver); TCDC dose 20 i.v., 4 h): 1456 ± 748 IU/L
Serum ALT (hepatic toxicity (liver); TCDC dose 20 i.v., 8 h): 1238 ± 257 IU/L
Serum AST (hepatic toxicity (liver); TCDC dose 20 i.v., 8 h): 2057 ± 939 IU/L
Serum ALT (hepatic toxicity (liver); TCDC dose 20 i.v., 12 h): 851 ± 167 IU/L
Serum AST (hepatic toxicity (liver); TCDC dose 20 i.v., 12 h): 1282 ± 375 IU/L
Serum ALT (hepatic toxicity (liver); TCDC dose 20 i.v., 24 h): 362 ± 75 IU/L
Serum AST (hepatic toxicity (liver); TCDC dose 20 i.v., 24 h): 399 ± 41 IU/L
Time of peak serum AST and ALT after injection (hepatic toxicity (liver); i.v. bolus TCDC in rats): 4 h
Serum alkaline phosphatase, change (hepatic toxicity (liver); [2]): no significant changes
Total serum bilirubin, change (hepatic toxicity (liver); [2]): no significant changes
Serum ALT concentration, change (hepatic toxicity (liver); [3]): significant rise
Serum AST concentration, change (hepatic toxicity (liver); [3]): significant rise
Bile flow and hepatic bile secretion (bile flow): marked reduction in bile flow and of hepatic bile secretion
ALT (TCDC hepatic toxicity): 1111 ± 213 IU/L
AST (TCDC hepatic toxicity): 2472 ± 505 IU/L
Bilirubin (TCDC hepatic toxicity): 0.4 ± 0.1 mg/dL
